Assays:
[1] = molecular target: cAMP-specific 3',5'-cyclic phosphodiesterase 4B (Homo sapiens, UniProt Q07343); assay: Enzyme Inhibition Assay; conditions: pH 7.5; 23 °C
Description: (§1) Inhibition of PDE4 is measured using a luminescence-coupled assay system developed by Cambrex. This assay system couples the formation of AMP, derived from PDE4-catalyzyed hydrolysis of cAMP, to the formation of ATP. The ATP is then used as a substrate for Luciferase and results in light as a signal output. […] This assay is used in a quenched assay format, where PDE4 enzyme and cAMP substrate are added sequentially to a 384 well assay plate (Greiner784075) pre-stamped with compound at the desired concentration. The reaction is incubated at room temperature for 1 h, and then is quenched by the addition of enzyme stop solution and then the light signal is generated by the addition of detection reagent. […] For inhibition curves, compounds were diluted using a 3-fold serial dilution and tested at 11 concentrations. Curves were analysed as describe above using ActivityBase and XLfit , and results were expressed as pIC50 values.

[2] = molecular target: cAMP-specific 3',5'-cyclic phosphodiesterase 4D (Homo sapiens, UniProt Q08499); assay: Enzyme Inhibition Assay; conditions: pH 7.5; 23 °C
Description: as §1

Sequence of cAMP-specific 3',5'-cyclic phosphodiesterase 4D (Q08499 whole entry): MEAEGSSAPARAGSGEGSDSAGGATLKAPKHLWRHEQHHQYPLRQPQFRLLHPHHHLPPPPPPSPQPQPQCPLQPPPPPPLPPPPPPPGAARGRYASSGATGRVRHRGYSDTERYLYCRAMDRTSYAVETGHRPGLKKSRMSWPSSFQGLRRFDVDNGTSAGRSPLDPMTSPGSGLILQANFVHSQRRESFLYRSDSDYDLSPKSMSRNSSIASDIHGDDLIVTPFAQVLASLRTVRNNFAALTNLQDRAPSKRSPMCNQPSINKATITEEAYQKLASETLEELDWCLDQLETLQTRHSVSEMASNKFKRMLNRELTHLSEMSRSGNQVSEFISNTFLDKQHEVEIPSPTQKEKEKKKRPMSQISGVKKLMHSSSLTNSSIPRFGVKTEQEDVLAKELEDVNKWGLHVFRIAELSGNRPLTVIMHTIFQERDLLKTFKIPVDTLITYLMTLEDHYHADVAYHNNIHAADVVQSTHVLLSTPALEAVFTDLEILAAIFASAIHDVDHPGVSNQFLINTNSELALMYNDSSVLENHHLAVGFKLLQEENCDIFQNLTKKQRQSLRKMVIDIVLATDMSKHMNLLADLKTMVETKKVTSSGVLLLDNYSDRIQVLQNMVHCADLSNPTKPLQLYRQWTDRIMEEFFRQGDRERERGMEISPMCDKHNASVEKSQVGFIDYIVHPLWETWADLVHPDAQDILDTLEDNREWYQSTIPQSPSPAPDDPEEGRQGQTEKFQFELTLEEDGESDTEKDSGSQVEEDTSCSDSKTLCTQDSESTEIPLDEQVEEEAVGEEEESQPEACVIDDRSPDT
Sequence of cAMP-specific 3',5'-cyclic phosphodiesterase 4B (Q07343 whole entry): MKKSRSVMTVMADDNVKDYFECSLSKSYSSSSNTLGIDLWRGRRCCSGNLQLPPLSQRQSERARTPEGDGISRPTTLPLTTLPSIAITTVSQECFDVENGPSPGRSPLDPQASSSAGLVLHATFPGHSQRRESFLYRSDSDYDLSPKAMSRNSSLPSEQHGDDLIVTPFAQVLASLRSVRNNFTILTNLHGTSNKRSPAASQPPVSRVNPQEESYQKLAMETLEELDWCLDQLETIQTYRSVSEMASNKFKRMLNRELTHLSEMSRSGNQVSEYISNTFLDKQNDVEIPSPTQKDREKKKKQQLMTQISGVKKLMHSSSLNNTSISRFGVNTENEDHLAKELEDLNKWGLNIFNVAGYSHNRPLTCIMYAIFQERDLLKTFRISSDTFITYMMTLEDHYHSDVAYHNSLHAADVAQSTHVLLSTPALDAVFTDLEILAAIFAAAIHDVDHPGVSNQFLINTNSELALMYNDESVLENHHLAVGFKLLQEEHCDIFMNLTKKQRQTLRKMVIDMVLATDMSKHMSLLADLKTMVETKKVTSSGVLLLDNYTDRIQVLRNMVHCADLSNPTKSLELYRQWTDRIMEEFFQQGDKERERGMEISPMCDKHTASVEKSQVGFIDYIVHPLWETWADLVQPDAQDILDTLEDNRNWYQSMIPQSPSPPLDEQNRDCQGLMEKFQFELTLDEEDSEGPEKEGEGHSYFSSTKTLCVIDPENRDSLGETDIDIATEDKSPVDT

SMILES | IC50 [1] [nM] | IC50 [2] [nM]
Cc1cccc(C)c1C(=O)C1CCCc2sc(NC(=O)c3ccccc3[N+](=O)[O-])c(C(N)=O)c21 (centres undefined) [tetrahydrobenzothiophene (THBT), 18] | 5010 | 2510
CCCC1CCc2c(sc(NC(=O)c3ccccc3[N+](=O)[O-])c2C(N)=O)C1 (centres undefined) [tetrahydrobenzothiophene (THBT), 24] | 100 | 2510

From BindingDB's records for doi:10.1016/j.bmc.2009.03.061 (Gsk, 2009)
